Results reported in patent US10196363B2, “Dihydropyrimidin-2-one compounds and medical use thereof” (JAPAN TOBACCO INC., priority 2014, dated 2019).
pEC50: −log10 of the molar value. Like-named read-outs stand apart in the source and are kept apart here.

Legend:
[1] = biological target: T1, mouse RORγ (Mus musculus, UniProt P51450); experiment: In vitro assay of inhibitory effect against RORγ transcriptional activity (GAL4-mRORγ LBD luciferase reporter gene assay in CHO cells); type: cell-based; details: for mRORγ luciferase activity, %-of-control: vehicle-control 0.2% DMSO alone = 100%
T1 construct: mouse RORγ, from Ile251 to Lys516; expressed in transfected cells; host or cells: CHO cells (Chinese hamster ovary), transient co-transfection with pG5-Luc
T1 sequence (P51450 251-516): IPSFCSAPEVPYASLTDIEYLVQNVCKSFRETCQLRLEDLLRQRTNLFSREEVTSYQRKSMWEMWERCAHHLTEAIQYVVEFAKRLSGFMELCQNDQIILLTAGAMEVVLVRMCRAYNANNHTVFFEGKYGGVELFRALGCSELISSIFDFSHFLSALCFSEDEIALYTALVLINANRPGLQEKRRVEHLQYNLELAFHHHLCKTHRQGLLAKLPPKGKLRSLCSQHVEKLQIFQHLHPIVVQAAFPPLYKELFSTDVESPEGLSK
Method in brief: (§1)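 Luciferase output, normalised to 0.2% DMSO vehicle (100%), served as the measure of RORγ transcriptional activity. The reporter was driven by GAL4-fused ligand-binding domains of human (residues 253–518) or mouse (251–516) RORγ in transiently transfected CHO cells. Cells received eight-point compound dilutions for 2 days, EC50 values were fitted, and cytotoxic points were dropped.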

[2] = biological target: T2, human RORγ (Homo sapiens, UniProt P51449); experiment: In vitro assay of inhibitory effect against RORγ transcriptional activity (GAL4-hRORγ LBD luciferase reporter gene assay in CHO cells); type: cell-based; details: for hRORγ luciferase activity, %-of-control: vehicle-control 0.2% DMSO alone = 100%
T2 construct: human RORγ, from Ser253 to Lys518; expressed in transfected cells; host or cells: CHO cells (Chinese hamster ovary), transient co-transfection with pG5-Luc
T2 sequence (P51449 253-518): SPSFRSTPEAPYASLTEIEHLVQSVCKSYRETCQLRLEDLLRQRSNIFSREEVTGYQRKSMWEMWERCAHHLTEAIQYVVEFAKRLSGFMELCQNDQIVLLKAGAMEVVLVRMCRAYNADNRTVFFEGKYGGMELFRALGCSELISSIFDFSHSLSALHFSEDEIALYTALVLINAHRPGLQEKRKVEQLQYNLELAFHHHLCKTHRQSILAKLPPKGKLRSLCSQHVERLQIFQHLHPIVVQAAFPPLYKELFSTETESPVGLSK
Method in brief: as §1

[3] = GAL4-mRORγ LBD / pG5-Luc in CHO cells, 2 days incubation
[4] = GAL4-hRORγ LBD / pG5-Luc in CHO cells, 2 days incubation
[5] = GAL4-mRORγ LBD luciferase reporter, CHO cells, read-out: LUC EC50 mRORγ
[6] = GAL4-hRORγ LBD luciferase reporter, CHO cells, read-out: LUC EC50 hRORγ
[7] = value in parentheses beside the > EC50 bound
[8] = value in parentheses beside the EC50 bound

Compound	pEC50 [1, 3]	pEC50 [2, 4]	pEC50 [1, 5]	pEC50 [2, 6]	other results
CCC(CC)Cc1ccc([C@]2(C)NC(=O)N(CCC(=O)O)C=C2C(C)C)cc1Cl [Example 177]	7.77	7.77			
CC(C)C1=CN(CCC(=O)O)C(=O)N[C@@]1(C)c1ccc(CC(O)C(C)(C)C)c(Cl)c1 (single isomer, unassigned) [Example 310]			6.56	6.32	
CC(C)(C)CCc1ccc([C@@]2(C)NC(=O)N([C@H]3C[C@H](C(=O)O)C3)C=C2C2CCOCC2)cc1Cl [Example 99]	5.54	5.82			
COCCN1C=C([C@H]2C[C@@H](C(=O)O)C2)C(C)(c2ccc(CCC(C)(C)C)c(Cl)c2)NC1=O (single isomer, unassigned) [Example 168]	7.74	7.92			
CC(C)C1=CN(C2CCCC(C(=O)O)C2)C(=O)N[C@@]1(C)c1ccc(CCC(C)(C)C)c(Cl)c1 (single isomer, unassigned) [Example 254]			7.55	7.55	
CCCC(CCC)Cc1ccc([C@]2(C)NC(=O)N(CCC(=O)O)C=C2C(C)C)cc1Cl [Example 178]	7.68	7.72			
CCCCc1ccc(C2(C)NC(=O)N(CCCC(=O)O)C=C2C(C)C)cc1 (racemic) [Example 84]	6.30	6.13			
COCCOc1ccc([C@]2(C)NC(=O)N(CCC(=O)O)C=C2C(C)C)cc1Cl [Example 127]	5.71	5.53			
CC(C)C1=CN(c2ccc(C(=O)O)cc2)C(=O)N[C@@]1(C)c1ccc(CCC(C)(C)C)c(Cl)c1 [Example 159, 4-{(S)-4-[3-chloro-4-(3,3-dimethyl-butyl)-phenyl]-5-isopropyl-4-methyl-2-oxo-3,4-dihydro-2H-pyrimidin-1-yl}-benzoic Acid]	7.64	7.68			
CC(C)N1C=C(C(C)(C)CCC(=O)O)C(C)(c2ccc(CCC(C)(C)C)c(Cl)c2)NC1=O (single isomer, unassigned) [Example 172]	7.74	7.89			
C[C@@]1(c2ccc(OCCC3CC3)c(Cl)c2)NC(=O)N(C23CC(C(=O)O)(C2)C3)C=C1C1CC(F)(F)C1 [Example 354]			6.84	6.62	
CC(C)C1=CN(CCC(=O)O)C(=O)N[C@]1(C)c1ccc(C2=CCCC2)c(Cl)c1 [Example 148]	< 5.10	< 5.10			mRORγ luciferase activity, %-of-control [1, 7]: (69%); hRORγ luciferase activity, %-of-control [2, 7]: (57%)
CC(C)C1=CN(CCCC(=O)O)C(=O)NC1(C)c1ccc(OCC(C)(C)C)c(Cl)c1 (racemic) [Example 9]	7.49	7.26			
CC(C)C1=CN(C2CCC(C(=O)O)C2)C(=O)N[C@@]1(C)c1ccc(CCC(C)(C)C)c(Cl)c1 (single isomer, unassigned) [Example 279]			7.66	7.80	
CC(C)(C)CCc1ccc([C@]2(C)NC(=O)N(CCC(=O)O)C=C2CCS(C)(=O)=O)cc1Cl [Example 303]			5.88	5.85	
CC(C)C1=CN(c2cc(C(=O)O)on2)C(=O)N[C@@]1(C)c1ccc(CCC(C)(C)C)c(Cl)c1 [Example 295]			6.44	6.87	
CCCCc1ccc(C2(C)NC(=O)N(CCCC(=O)O)C=C2C(C)C)cc1OCc1ccccc1 (racemic) [Example 85]	6.43	6.26			
CC(C)C1=CN(Cc2ccc(C(=O)O)cc2)C(=O)N[C@@]1(C)c1ccc(CCC(C)(C)C)c(Cl)c1 [Example 204]			7.77	7.85	
CC(C)(C)CCc1ccc([C@]2(C)NC(=O)N(C3CC(F)(F)C3)C=C2[C@H]2C[C@@H](C(=O)O)C2)cc1Cl [Example 229]			7.74	8.05	
CC(C)C1=CN([C@H]2CC[C@H](C(=O)O)CC2)C(=O)N[C@@]1(C)c1ccc(CCC(C)(C)C)c(Cl)c1 [Example 79]	7.74	7.80			

Compound	pEC50 [1, 3]	pEC50 [2, 4]	pEC50 [1, 5]	pEC50 [2, 6]	other results
CCC(C)C1=CN(CCCC(=O)O)C(=O)NC1(C)c1ccc(CCC(C)(C)C)c(Cl)c1 (single isomer, unassigned) [Example 34]	7.68	7.89			
CC(C)(C)CCc1ccc(C2(C)NC(=O)NC=C2C(C)(C)CCC(=O)O)cc1Cl (single isomer, unassigned) [Example 130, 4-{4-[3-chloro-4-(3,3-dimethyl-butyl)-phenyl]-4-methyl-2-oxo-1,2,3,4-tetrahydro-pyrimidin-5-yl}-4-methyl-pentanoic Acid]	7.72	8.00			
CC(C)C1=CN(C2CCCC(C(=O)O)C2)C(=O)N[C@@]1(C)c1ccc(CCC(C)(C)C)c(Cl)c1 (single isomer, unassigned) [Example 255]			6.53	6.56	
CC(C)C1=CN(CCC(=O)O)C(=O)N[C@@]1(C)c1ccc(C=C2CCC2)c(Cl)c1 [Example 288]			6.04	5.83	
Cc1cc(C(=O)O)ccc1N1C=C(C(C)C)[C@](C)(c2ccc(CCC(C)(C)C)c(Cl)c2)NC1=O [Example 220]			7.54	7.66	
CC(C)C1=CN(CCC(=O)O)C(=O)N[C@@]1(C)c1ccc(CCC2CC(C)(C)C2)c(Cl)c1 [Example 142]	7.31	< 6.29			hRORγ luciferase activity, %-of-control [2, 7]: (102%)
CC(C)C1=CN(CCC(=O)O)C(=O)N[C@]1(C)c1ccc(C2CCCC2)c(Cl)c1 [Example 155]	< 5.10	< 5.10			mRORγ luciferase activity, %-of-control [1, 7]: (81%); hRORγ luciferase activity, %-of-control [2, 7]: (83%)
CC(C)C1=CN(CCC(=O)O)C(=O)N[C@@]1(C)c1ccc(CC[Si](C)(C)C)c(Cl)c1 [Example 158]	7.64	7.52			
COC(=O)[C@H]1C[C@H](N2C=C(C(C)(C)CCCO)[C@@](C)(c3ccc(CCC(C)(C)C)c(Cl)c3)NC2=O)C1 (single isomer, unassigned) [Example 190]			< 5.10	< 5.10	mRORγ luciferase activity, %-of-control [1, 8]: (66%); hRORγ luciferase activity, %-of-control [2, 8]: (74%)
CC(C)(C)CCc1ccc(C2NC(=O)N([C@H]3C[C@H](C(=O)O)C3)C=C2C(C)(C)C)cc1Cl (single isomer, unassigned) [Example 102]	< 5.10	< 5.10			mRORγ luciferase activity, %-of-control [1, 7]: (76%); hRORγ luciferase activity, %-of-control [2, 7]: (76%)
CC(C)C1=CN(CCC(C)C(=O)O)C(=O)NC1(C)c1ccc(CCC(C)(C)C)c(Cl)c1 (single isomer, unassigned) [Example 25]	> 7.49	> 7.49			
CC(C)C1=CN(CCC(=O)O)C(=O)N[C@]1(C)c1ccc(CCC(C)(C)C)c(Cl)c1 [Example 86, 3-{(R)-4-[3-Chloro-4-(3,3-dimethyl-butyl)-phenyl]-5-isopropyl-4-methyl-2-oxo-3,4-dihydro-2H-pyrimidin-1-yl}-propionic Acid]	< 5.10	5.17			mRORγ luciferase activity, %-of-control [1, 7]: (51%)
COCCC1=CN(c2ccc(C(=O)O)c(OC)c2)C(=O)N[C@@]1(C)c1ccc(CC2CCCCC2)c(Cl)c1 [Example 337]			7.85	7.66	
COCCN1C=C(C(C)(C)CCC(=O)O)C(C)(c2ccc(CCC(C)(C)C)c(Cl)c2)NC1=O (single isomer, unassigned) [Example 160]	7.40	7.82			
COc1cc([C@@]2(C)NC(=O)N(CCC(=O)O)C=C2C(C)C)ccc1CCC(C)(C)C [Example 212]			< 5.10	< 5.10	mRORγ luciferase activity, %-of-control [1, 8]: (81%); hRORγ luciferase activity, %-of-control [2, 8]: (68%)
CC(C)C1=CN(C2CCC(C(=O)O)C2)C(=O)N[C@@]1(C)c1ccc(CCC(C)(C)C)c(Cl)c1 (single isomer, unassigned) [Example 278]			7.89	7.89	
CC(C)C1=CN([C@H]2C[C@H](CC(=O)O)C2)C(=O)N[C@@]1(C)c1ccc(CCC(C)(C)C)c(Cl)c1 [Example 108]	7.68	7.80			
COCCN1C=C(c2ccc(C(=O)O)cc2)[C@](C)(c2ccc(CCC(C)(C)C)c(Cl)c2)NC1=O [Example 225]			7.14	7.00	
CC(C)C1=CN(CCC2(C(=O)O)CC2)C(=O)N[C@]1(C)c1ccc(CCC(C)(C)C)c(Cl)c1 [Example 71]	6.12	6.30			
CC(C)C1=CN(C2CCCC(C(=O)O)C2)C(=O)N[C@@]1(C)c1ccc(CCC(C)(C)C)c(Cl)c1 (single isomer, unassigned) [Example 256]			7.59	7.66	
